# Experimental data reported in PubChem BioAssay AID328 (DTP/NCI, 2004).
# Values joined by “and” are separate entries in the source; they are usually repeats but may differ in a detail not shown here. Equal entries are not always repeated. Toxic doses and inconclusive results are not listed.
# Test system: BDF1 mice, P388 leukemia ip, median survival T/C
# Test: NCI In Vivo Anticancer Drug Screen. Data for tumor model P388 Leukemia (intraperitoneal) in B6D2F1 (BDF1) mice
# Conditions: endpoint: median survival time, higher = longer survival
# Procedure, shortened: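 T/C = treated-group survival ÷ vehicle-control survival; tumour transplanted into mice before dosing.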
# [1] = dose: 100.0 mg/kg/injection, schedule: Q04DX003 (ip), vehicle: Klucel (hydroxypropylcellulose) (HPC)
# [2] = dose: 400.0 mg/kg/injection, schedule: Q04DX003 (ip), vehicle: Klucel (hydroxypropylcellulose) (HPC)
# [3] = dose: 1.5 mg/kg/injection, schedule: Q04DX003 (ip), vehicle: saline
# [4] = dose: 100.0 mg/kg/injection, schedule: Q04DX003 (ip), vehicle: saline
# [5] = dose: 25.0 mg/kg/injection, schedule: Q01DX009 (ip), vehicle: saline with Tween-80
# [6] = dose: 100.0 mg/kg/injection, schedule: Q01DX009 (ip), vehicle: saline with Tween-80
# [7] = dose: 100.0 mg/kg/injection, schedule: Q04DX003 (ip), vehicle: saline with Tween-80
# [8] = dose: 200.0 mg/kg/injection, schedule: Q04DX003 (ip), vehicle: saline with Tween-80
# [9] = dose: 400.0 mg/kg/injection, schedule: Q04DX003 (ip), vehicle: saline with Tween-80
# [10] = dose: 50.0 mg/kg/injection, schedule: Q01DX009 (ip), vehicle: saline with Tween-80
# [11] = dose: 200.0 mg/kg/injection, schedule: Q01DX009 (ip), vehicle: saline with Tween-80
# [12] = dose: 12.5 mg/kg/injection, schedule: Q01DX009 (ip), vehicle: Klucel (hydroxypropylcellulose) (HPC)
# [13] = dose: 25.0 mg/kg/injection, schedule: Q01DX009 (ip), vehicle: Klucel (hydroxypropylcellulose) (HPC)
# [14] = dose: 50.0 mg/kg/injection, schedule: Q01DX009 (ip), vehicle: Klucel (hydroxypropylcellulose) (HPC)
# [15] = dose: 100.0 mg/kg/injection, schedule: Q01DX009 (ip), vehicle: Klucel (hydroxypropylcellulose) (HPC)
# [16] = dose: 200.0 mg/kg/injection, schedule: Q04DX003 (ip), vehicle: Klucel (hydroxypropylcellulose) (HPC)
# [17] = dose: 12.5 mg/kg/injection, schedule: Q01DX009 (ip), vehicle: saline
# [18] = dose: 25.0 mg/kg/injection, schedule: Q01DX009 (ip), vehicle: saline
structure (smiles),measurement,setting,value
C=C(C)c1cc2c(cc1O)OCC2C (stereo unspecified),T/C,[1],92 % of control
same,T/C,"dose: 300.0 mg/kg/injection, schedule: Q01DX009 (ip), vehicle: Klucel (hydroxypropylcellulose) (HPC)",90 % of control
same,T/C,[2],92 % of control
C/C(=N\N=C(N)N)c1ccc(NC(=O)Nc2ccc(/C(C)=N/N=C(N)N)cc2)cc1,T/C,[3],115 % of control
same,T/C,"dose: 5.4 mg/kg/injection, schedule: Q04DX003 (ip), vehicle: saline",150 % of control
same,T/C,"dose: 44.0 mg/kg/injection, schedule: Q04DX003 (ip), vehicle: saline",163 % of control
same,T/C,"dose: 66.0 mg/kg/injection, schedule: Q04DX003 (ip), vehicle: saline",118 % of control
same,T/C,[4],154 % of control
same,T/C,"dose: 200.0 mg/kg/injection, schedule: Q04DX003 (ip), vehicle: saline",179 % of control
same,T/C,"dose: 264.0 mg/kg/injection, schedule: Q04DX003 (ip), vehicle: saline",180 % of control and 222 % of control
same,T/C,"dose: 400.0 mg/kg/injection, schedule: Q04DX003 (ip), vehicle: saline",236 % of control and 241 % of control and 190 % of control
[Cl][Pd][Cl].[NH-]CC[NH-],T/C,"dose: 6.0 mg/kg/injection, schedule: Q01DX009 (ip), vehicle: saline with Tween-80",104 % of control
same,T/C,"dose: 12.0 mg/kg/injection, schedule: Q01DX009 (ip), vehicle: saline with Tween-80",104 % of control
same,T/C,[5],100 % of control
same,T/C,[6],118 % of control
same,T/C,[7],100 % of control
same,T/C,[8],118 % of control
same,T/C,[9],113 % of control
Cc1cc(C)cc(C(C)C)c1,T/C,[10],101 % of control
same,T/C,[6],116 % of control
same,T/C,[11],122 % of control
O=[N+]([O-])c1cc([N+](=O)[O-])c2ccccc2c1NS(=O)(=O)/C=C/c1ccccc1,T/C,[5],104 % of control
same,T/C,[10],112 % of control
same,T/C,[6],111 % of control
O=c1cc(Cl)c2ccccc2[nH]1,T/C,[6],100 % of control
same,T/C,[7],109 % of control
same,T/C,[11],91 % of control
same,T/C,[8],100 % of control
same,T/C,"dose: 400.0 mg/kg/injection, schedule: Q01DX009 (ip), vehicle: saline with Tween-80",100 % of control
same,T/C,[9],100 % of control
CCC(c1ccc(O)cc1)C(CC)c1ccc(OC)cc1 (stereo unspecified),T/C,[10],104 % of control
same,T/C,[6],118 % of control
same,T/C,[11],109 % of control
COC(=O)C(NC(=O)c1ccccc1)=C(COC(C)=O)COC(C)=O,T/C,"dose: 100.0 mg/kg/injection, schedule: Q04DX003 (ip), vehicle: saline sonified",95 % of control
same,T/C,"dose: 200.0 mg/kg/injection, schedule: Q04DX003 (ip), vehicle: saline sonified",100 % of control
same,T/C,"dose: 400.0 mg/kg/injection, schedule: Q04DX003 (ip), vehicle: saline sonified",110 % of control
CC(/C=N/N=C(N)N)=N/N=C(N)N,T/C,"dose: 100.0 mg/kg/injection, schedule: Q01DX009 (ip), vehicle: saline",150 % of control
same,T/C,"dose: 150.0 mg/kg/injection, schedule: Q01DX009 (ip), vehicle: saline with Tween-80",90 % of control
C=CCN1C(=O)CN=C1SC(=O)Nc1ccc(Cl)cc1,T/C,"dose: 50.0 mg/kg/injection, schedule: Q01DX005 (ip), vehicle: saline with Tween-80",97 % of control
same,T/C,"dose: 100.0 mg/kg/injection, schedule: Q01DX005 (ip), vehicle: saline with Tween-80",97 % of control
CCOC(=O)C1C2OC(=O)C(C(=O)C2CN(CCCl)CCCl)C1C1CC=C(CC2=CCC(C3C4C(=O)OC(C(CN(CCCl)CCCl)C4=O)C3C(=O)OCC)CC2)CC1 (stereo unspecified),T/C,"dose: 6.25 mg/kg/injection, schedule: Q01DX009 (ip), vehicle: Klucel (hydroxypropylcellulose) (HPC)",169 % of control
same,T/C,[12],165 % of control (2×) and 178 % of control
same,T/C,[13],176 % of control and 184 % of control and 189 % of control
same,T/C,[14],184 % of control and 208 % of control and 215 % of control
same,T/C,[15],265 % of control and 291 % of control and 109 % of control
O=C(/C=C\c1ccc(O)c(O)c1)OC1C(O)CC(OC(=O)/C=C/c2ccc(O)c(O)c2)(C(=O)O)CC1O (stereo unspecified),T/C,"dose: 100.0 mg/kg/injection, schedule: Q01DX001 (ip), vehicle: saline",95 % of control
same,T/C,[1],100 % of control
same,T/C,"dose: 200.0 mg/kg/injection, schedule: Q01DX001 (ip), vehicle: saline",95 % of control
same,T/C,[16],100 % of control
same,T/C,"dose: 400.0 mg/kg/injection, schedule: Q01DX001 (ip), vehicle: saline",95 % of control
same,T/C,[2],95 % of control
CCSC(C(OC(C)=O)C(OC(C)=O)C(OC(C)=O)C(COC(C)=O)OC(C)=O)n1cnc2c(=S)nc[nH]c21 (stereo unspecified),T/C,"dose: 12.5 mg/kg/injection, schedule: Q01DX005 (ip), vehicle: saline with Tween-80",98 % of control
same,T/C,"dose: 25.0 mg/kg/injection, schedule: Q01DX005 (ip), vehicle: saline with Tween-80",95 % of control
CC1(C)N=C(N)N=C(N)N1c1cccc(CCCCc2cccc(S(=O)(=O)F)c2)c1,T/C,[3],118 % of control
same,T/C,"dose: 4.0 mg/kg/injection, schedule: Q04DX003 (ip), vehicle: saline with Tween-80",109 % of control
same,T/C,"dose: 6.0 mg/kg/injection, schedule: Q04DX003 (ip), vehicle: saline with Tween-80",113 % of control
same,T/C,"dose: 6.25 mg/kg/injection, schedule: Q01DX009 (ip), vehicle: saline",108 % of control
same,T/C,"dose: 9.0 mg/kg/injection, schedule: Q04DX003 (ip), vehicle: saline with Tween-80",118 % of control
same,T/C,[17],116 % of control
same,T/C,[18],116 % of control
CC(=O)O[C@]1(C(C)=O)CC[C@H]2[C@@H]3C[C@H](F)C4=CC(=O)CC[C@]4(C)[C@H]3CC[C@@]21C,T/C,[12],109 % of control
same,T/C,[13],100 % of control
same,T/C,[14],100 % of control
same,T/C,[15],87 % of control
same,T/C,"dose: 100.0 mg/kg/injection, schedule: Q04DX003 (ip), vehicle: alcohol",100 % of control
same,T/C,"dose: 200.0 mg/kg/injection, schedule: Q04DX003 (ip), vehicle: alcohol",105 % of control
same,T/C,"dose: 400.0 mg/kg/injection, schedule: Q04DX003 (ip), vehicle: alcohol",110 % of control
CC1(C)C2CCC1(C)C(OC(=O)c1ccc([N+](=O)[O-])cc1)C2OC(=O)c1ccc([N+](=O)[O-])cc1 (stereo unspecified),T/C,"dose: 75.0 mg/kg/injection, schedule: Q04DX003 (ip), vehicle: other",100 % of control
same,T/C,"dose: 150.0 mg/kg/injection, schedule: Q04DX003 (ip), vehicle: other",91 % of control
same,T/C,"dose: 300.0 mg/kg/injection, schedule: Q04DX003 (ip), vehicle: other",91 % of control
COc1ccc(/C=C/C(=O)c2ccc(OC)cc2)cc1,T/C,[1],100 % of control
same,T/C,[16],104 % of control
same,T/C,[2],95 % of control
CCCCNC(C)(C)CS,T/C,"dose: 3.12 mg/kg/injection, schedule: Q04DX003 (ip), vehicle: saline",106 % of control
same,T/C,"dose: 6.25 mg/kg/injection, schedule: Q04DX003 (ip), vehicle: saline",115 % of control
same,T/C,[17],116 % of control
same,T/C,"dose: 12.5 mg/kg/injection, schedule: Q04DX003 (ip), vehicle: saline",108 % of control
same,T/C,[18],109 % of control
same,T/C,"dose: 25.0 mg/kg/injection, schedule: Q04DX003 (ip), vehicle: saline",97 % of control
same,T/C,"dose: 50.0 mg/kg/injection, schedule: Q04DX003 (ip), vehicle: saline",101 % of control
same,T/C,[4],92 % of control
Cc1ccc(Cl)c([N+](=O)[O-])c1N,T/C,[10],104 % of control
same,T/C,[6],87 % of control
same,T/C,[11],91 % of control
O=C(O)c1cc(Br)ccc1OCc1cccc(Cl)c1,T/C,[7],99 % of control
COC1C(OC(=O)c2ccc(C)[nH]2)C(O)C(Oc2ccc3c(O)c(NC(=O)c4ccc(O)c(CC=C(C)C)c4)c(=O)oc3c2Cl)OC1(C)C (stereo unspecified),T/C,"dose: 50.0 mg/kg/injection, schedule: Q01DX009 (ip), vehicle: other",106 % of control
same,T/C,"dose: 100.0 mg/kg/injection, schedule: Q01DX009 (ip), vehicle: other",104 % of control
same,T/C,"dose: 200.0 mg/kg/injection, schedule: Q01DX009 (ip), vehicle: other",115 % of control
CSc1ccccc1C(=O)NNS(=O)(=O)c1ccc(C)cc1,T/C,[1],91 % of control
same,T/C,[16],104 % of control
same,T/C,[2],100 % of control
